Experimental data reported in patent publication US12329799B2, “Peptidyl inhibitors of calcineurin-NFAT interaction” (Ohio State Innovation Foundation, priority 2018, dated 2025).
Read-outs that look alike come from different tables or passages of the source. Values belong to the compound of their own block, whether it stands above or below them. Positions of bridges follow the written chain, without caps; N, C: chain ends. Non-standard residues stand in square brackets, D forms with d. Residues, ends and D or L forms follow the SMILES beside them. Chains are numbered I, II in the order given. *: point of attachment. FITC = O=C1OC2(c3ccc(O)cc3Oc3cc(O)ccc32)c2ccc(NC(=S)*)cc21; Benzoyl(2,3,4,5,6-F5) = O=C(c1c(F)c(F)c(F)c(F)c1F)*; Benzoyl(2,3-Cl2) = O=C(c1cccc(Cl)c1Cl)*; Phe(4-F) = N[C@@H](Cc1ccc(F)cc1)C(=O)O; 2Nal = N[C@@H](Cc1ccc2ccccc2c1)C(=O)O; Val(3-OH) = CC(C)(O)[C@H](N)C(=O)O; X4 = O=C(c1cc(F)c(F)c(F)c1F)*; Chg = N[C@H](C(=O)O)C1CCCCC1; Tle = CC(C)(C)[C@H](N)C(=O)O; X6 = O=C(c1ccc(Br)c(Cl)c1)*; X5 = Cc1ccc(C(=O)*)c(F)c1F; X1 = O=C(c1ccnc(Cl)c1Cl)*; AEEA = NCCOCCOCC(=O)O; βAla = NCCC(=O)O

What was measured:
[1] = test system: Caco-2 cell monolayers; assay: Caco-2 permeability assay; type: in vitro ADME
Protocol: Caco-2 permeability assay. To assay the permeability of test compounds by Caco-2 cell model, Caco-2 cells were cultured to confluency before being trypsinized and seeded onto filter transwell inserts at a density of 30,000 cells/well in DMEM medium. Cells were cultured in a humidified atmosphere with 5% CO2 at 37° C. After overnight attachment, cell medium was replaced with fresh medium at both apical and basolateral sides every other day. The cell monolayers are ready for the assay 20 days post seeding. […] The dosing solution at 10 μM was obtained by diluting 10 mM stock solution in HBSS medium (pH 7.4, 25 mM HEPES) freshly before the assay. Terfenadine (25 ng/mL) and Tolbutamide (50 ng/mL) were added into dosing solution as internal standards. […] The culture medium from either the basolateral side (plate B) or apical side (plate A) were aspirated and then rinsed with HBSS medium once. Afterwards, the dosing medium was added to either basolateral or apical side. Following the incubation, 100 microliter samples from both sides were harvested at time 0 and time 90 min. Samples were quenched with acetonitrile/methanol (1:1 v/v), centrifuged, and analyzed on a Shimadzu reversed-phase HPLC and Sciex API4500 Q trap instrument.
Permeability parameters were calculated using the following equations and shown in Table 10: Papp=(Conc.receiver,90 min*Volumereceiver)/(Time*Membrane Area*Conc.donor,0 min) Efflux Ratio=Papp[B to A]/Papp[A to B]

[2] = Aqueous solubility (turbidity at 780 nm); type: physicochemical
Protocol: The peptide was serially diluted from a DMSO stock into PBS (pH 7.4) containing 5% DMSO and the optical density of the resulting solutions were measured at 780 nm.
Solubility. Peptides were diluted from a DMSO stock into PBS, pH 7.4 and then serially diluted in identical buffer to standardize DMSO concentration in clear, 96-well plates. The solutions were allowed to stand for 1 h at RT without mixing and then turbidity was measured at 780 nm using a Tecan Infinite M1000 plate reader.

[3] = target: T1, Calcineurin (GST-CN) (Homo sapiens, UniProt Q08209); assay: Direct binding of FITC-labeled peptides to CN by fluorescence anisotropy/polarization; details: for Kd: Table 5, acyl-ZIZITGPHEEYK(FITC)-NH2 peptides, FA
T1 construct: made in house; host or cells: E. coli BL21
Protocol: To facilitate concentration determination and binding analysis by fluorescence anisotropy (FA), a dipeptide Tyr-Lys was added to the C-terminus of ZIZIT (SEQ ID NO:1) and the lysine side chain was labeled with fluorescein isothiocyanate (FITC). The resulting peptide,
Fluorescence Polarization. Fluorescence polarization (FP) experiments were carried out to measure binding affinity in both direct and competitive binding experiments using GST-CN and peptides prepared as mentioned previously. For direct binding, 50 nM FITC-labeled peptide was prepared in PBS, pH 7.4 containing 5 mM DTT and 0.01% Triton-X100 and then added to GST-CN diluted in PBS containing 0.01% Triton-X100. Solutions were incubated for 1 h at RT with gentle mixing and then pipetted into black 384-well microplates. Fluorescence polarization was measured on a TECAN Infinite M1000 plate reader and titration curves were fitted using both KaelidaGraph v 3.6 and GraphPad PRISM to the equation:
[formula] • where FP is the measured fluorescence polarization, Amin is the minimum FP value, Amax is the maximum FP signal, Qb is the quantum yield of the bound fluorophore, Qf is the quantum yield of the free fluorophore, L is the ligand concentration, KD is the dissociation constant and x is the protein concentration.

[4] = Serum stability assay; type: in vitro ADME; details: 37° C.
Protocol: Serum Stability Assay. Diluted human serum (25%) (H4522 human serum, Sigma) was centrifuged at 15,000 rpm for 10 min, and the supernatant was collected. A peptide stock solution was diluted into the supernatant to a final concentration of 5 μM and incubated at 37° C. At various time points (0-24 h), 200-μL aliquots were withdrawn and mixed with 100 μL of 15% trichloroacetic acid and incubated at 4° C. overnight. The final mixture was centrifuged at 15,000 rpm for 10 min in a microcentrifuge, and the supernatant was analyzed by reversed-phase HPLC equipped with a C18 column. The amount of remaining peptide (%) was determined by integrating the area underneath the peptide peak (monitored at 214 nm) and comparing with that from the peptide at time 0.

T1 sequence (Q08209 2-347 limits assumed): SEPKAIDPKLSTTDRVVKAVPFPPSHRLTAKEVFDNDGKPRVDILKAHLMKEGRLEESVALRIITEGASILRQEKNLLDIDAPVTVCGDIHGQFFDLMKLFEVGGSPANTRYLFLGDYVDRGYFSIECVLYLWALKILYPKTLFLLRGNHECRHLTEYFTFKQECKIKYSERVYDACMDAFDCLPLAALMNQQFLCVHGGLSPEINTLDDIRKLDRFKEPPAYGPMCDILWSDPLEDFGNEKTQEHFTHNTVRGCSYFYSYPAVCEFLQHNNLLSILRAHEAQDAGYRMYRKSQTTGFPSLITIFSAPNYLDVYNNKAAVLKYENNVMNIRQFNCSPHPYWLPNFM

Kd ([3]; read-out: KD): 32 to 189 nM
Compound: CC[C@H](C)[C@H](NC(=O)[C@@H](NC(=O)c1ccc(Br)c(Cl)c1)C(C)(C)C)C(=O)N[C@H](C(=O)N[C@H](C(=O)N[C@H](C(=O)NCC(=O)N1CCC[C@H]1C(=O)N[C@@H](Cc1c[nH]cn1)C(=O)N[C@@H](CCC(=O)O)C(=O)N[C@@H](CCC(=O)O)C(=O)N[C@@H](Cc1ccc(O)cc1)C(=O)N[C@@H](CCCCNC(=S)Nc1ccc2c(c1)C(=O)OC21c2ccc(O)cc2Oc2cc(O)ccc21)C(N)=O)[C@@H](C)O)[C@@H](C)CC)C(C)(C)C [Peptide 10] (X6-[Tle]I[Tle]ITGPHEEYK(FITC)-NH2)

Kd ([3]; read-out: KD): 32 to 189 nM
Compound: CC[C@H](C)[C@H](NC(=O)[C@@H](NC(=O)c1c(F)c(F)c(F)c(F)c1F)C(C)(C)C)C(=O)N[C@H](C(=O)N[C@H](C(=O)N[C@H](C(=O)NCC(=O)N1CCC[C@H]1C(=O)N[C@@H](Cc1c[nH]cn1)C(=O)N[C@@H](CCC(=O)O)C(=O)N[C@@H](CCC(=O)O)C(=O)N[C@@H](Cc1ccc(O)cc1)C(=O)N[C@@H](CCCCNC(=S)Nc1ccc2c(c1)C(=O)OC21c2ccc(O)cc2Oc2cc(O)ccc21)C(N)=O)[C@@H](C)O)[C@@H](C)CC)C(C)(C)C [Peptide 11] ({Benzoyl(2,3,4,5,6-F5)}-[Tle]I[Tle]ITGPHEEYK(FITC)-NH2)

decrease in binding affinity on removal of C-terminal pentapeptide (GPHEE) ([3]; peptide 12 versus peptide 9): 17 fold
Compound: CC[C@H](C)[C@H](NC(=O)[C@@H](NC(=O)c1cccc(Cl)c1Cl)C(C)(C)C)C(=O)N[C@H](C(=O)N[C@H](C(=O)N[C@H](C(=O)NCCOCCOCC(=O)N[C@@H](CCCCNC(=S)Nc1ccc2c(c1)C(=O)OC21c2ccc(O)cc2Oc2cc(O)ccc21)C(N)=O)[C@@H](C)O)[C@@H](C)CC)C(C)(C)C [Peptide 12, Dcb-ZIZIT-miniPEG-Lys (FITC)] ({Benzoyl(2,3-Cl2)}-[Tle]I[Tle]IT[AEEA]K(FITC)-NH2; C-terminus assumed)

aqueous solubility (qualitative) [2]: good aqueous solubility
Compound: CC[C@H](C)[C@H](NC(=O)[C@@H](NC(=O)c1cccc(Cl)c1Cl)C(C)(C)C)C(=O)N[C@H](C(=O)N[C@H](C(=O)N[C@H](C(=O)N[C@@H](Cc1ccc(O)cc1)C(=O)N[C@H](CCC(=O)O)C(=O)N[C@@H](Cc1ccc(F)cc1)C(=O)NCC(=O)NCCC(=O)N[C@@H](CCCCNC(=S)Nc1ccc2c(c1)C(=O)OC21c2ccc(O)cc2Oc2cc(O)ccc21)C(N)=O)[C@@H](C)O)[C@@H](C)CC)C(C)(C)C [Peptide 13, Dcb-ZIZIT-Tyr-glu-Fpa-Gly-βAla-Lys (FITC)] ({Benzoyl(2,3-Cl2)}-[Tle]I[Tle]ITY[dE][Phe(4-F)]G[βAla]K(FITC)-NH2; C-terminus assumed)

aqueous solubility (qualitative) [2]: lower solubility
Compound: CC[C@H](C)[C@H](NC(=O)[C@@H](NC(=O)c1cccc(Cl)c1Cl)C(C)(C)C)C(=O)N[C@H](C(=O)N[C@H](C(=O)N[C@H](C(=O)N[C@@H](CCC(N)=O)C(=O)N[C@@H](Cc1c[nH]cn1)C(=O)N[C@H](CC(C)C)C(=O)N[C@@H](Cc1c[nH]cn1)C(=O)NCCC(=O)N[C@@H](CCCCNC(=S)Nc1ccc2c(c1)C(=O)OC21c2ccc(O)cc2Oc2cc(O)ccc21)C(N)=O)[C@@H](C)O)[C@@H](C)CC)C(C)(C)C [Peptide 15, Dcb-ZIZIT-Gln-His-leu-His-βAla-Lys (FITC)] ({Benzoyl(2,3-Cl2)}-[Tle]I[Tle]ITQH[dL]H[βAla]K(FITC)-NH2; C-terminus assumed)

More lines, now with the values behind:

Compound: CC(C)CN(C[C@@H](O)[C@H](Cc1ccccc1)NC(=O)O[C@H]1CCOC1)S(=O)(=O)c1ccc(N)cc1 [Amprenavir, reference compound]
Pgp Substrate [1]: Yes

Compound: CC[C@H](C)[C@H](NC(=O)[C@@H](NC(=O)[C@@H](NC(=O)[C@@H](NC(=O)c1ccnc(Cl)c1Cl)C(C)(C)C)C1CCCCC1)C(C)(C)O)C(=O)N[C@H](C(=O)N[C@@H](CCC(N)=O)C(=O)N[C@@H](Cc1c[nH]cn1)C(=O)N[C@H](CC(C)C)C(=O)N[C@@H](CO)C(=O)NCCC(=O)N[C@@H](CCCCNC(=O)CC[C@@H]1NC(=O)[C@@H](CCCNC(=N)N)NC(=O)[C@H](CCCNC(=N)N)NC(=O)[C@@H](CCCNC(=N)N)NC(=O)[C@H](CCCNC(=N)N)NC(=O)[C@H](Cc2ccc3ccccc3c2)NC(=O)[C@@H](Cc2ccccc2)NC1=O)C(N)=O)[C@@H](C)O [Compound 44, (DCNA)-Tle-Chg-Bhv-Ile-Thr-Gln-His-(D-Leu)-Ser-βAla-Lys{[cyclo-(Gln-(D-Arg)-Arg-(D-Arg)-Arg-(2-Nal)-(D-Phe)]}-NH2] (I: X1-[Tle][Chg][Val(3-OH)]ITQH[dL]S[βAla]K-NH2 / II: cyclo([2Nal]R[dR]R[dR]E[dF]); amide I:11-II:6 (inferred); ring closure inferred)
solubility relative to CNI103 [2]: less soluble

Compound: CC[C@H](C)[C@H](NC(=O)[C@@H](NC(=O)c1cc(F)c(F)c(F)c1F)C(C)(C)C)C(=O)N[C@H](C(=O)N[C@H](C(=O)N[C@H](C(=O)NCC(=O)N1CCC[C@H]1C(=O)N[C@@H](Cc1c[nH]cn1)C(=O)N[C@@H](CCC(=O)O)C(=O)N[C@@H](CCC(=O)O)C(=O)N[C@@H](Cc1ccc(O)cc1)C(=O)N[C@@H](CCCCNC(=S)Nc1ccc2c(c1)C(=O)OC21c2ccc(O)cc2Oc2cc(O)ccc21)C(N)=O)[C@@H](C)O)[C@@H](C)CC)C(C)(C)C [Peptide 7] (X4-[Tle]I[Tle]ITGPHEEYK(FITC)-NH2)
Kd ([3]; KD (nM)): 32 to 189 nM

Compound: CC[C@H](C)[C@H](NC(=O)[C@@H](NC(=O)c1ccc(C)c(F)c1F)C(C)(C)C)C(=O)N[C@H](C(=O)N[C@H](C(=O)N[C@H](C(=O)NCC(=O)N1CCC[C@H]1C(=O)N[C@@H](Cc1c[nH]cn1)C(=O)N[C@@H](CCC(=O)O)C(=O)N[C@@H](CCC(=O)O)C(=O)N[C@@H](Cc1ccc(O)cc1)C(=O)N[C@@H](CCCCNC(=S)Nc1ccc2c(c1)C(=O)OC21c2ccc(O)cc2Oc2cc(O)ccc21)C(N)=O)[C@@H](C)O)[C@@H](C)CC)C(C)(C)C [Peptide 8] (X5-[Tle]I[Tle]ITGPHEEYK(FITC)-NH2)
Kd ([3]; read-out: KD): 32 to 189 nM

Compound: CC[C@H](C)[C@H](NC(=O)[C@@H](NC(=O)c1cccc(Cl)c1Cl)C(C)(C)C)C(=O)N[C@H](C(=O)N[C@H](C(=O)N[C@H](C(=O)NCC(=O)N1CCC[C@H]1C(=O)N[C@@H](Cc1c[nH]cn1)C(=O)N[C@@H](CCC(=O)O)C(=O)N[C@@H](CCC(=O)O)C(=O)N[C@@H](Cc1ccc(O)cc1)C(=O)N[C@@H](CCCCNC(=S)Nc1ccc2c(c1)C(=O)OC21c2ccc(O)cc2Oc2cc(O)ccc21)C(N)=O)[C@@H](C)O)[C@@H](C)CC)C(C)(C)C [Peptide 9] ({Benzoyl(2,3-Cl2)}-[Tle]I[Tle]ITGPHEEYK(FITC)-NH2)
Kd ([3]; KD (nM)): 32 to 189 nM

Compound: CC[C@H](C)[C@H](NC(=O)[C@@H](NC(=O)c1cccc(Cl)c1Cl)C(C)(C)C)C(=O)N[C@H](C(=O)N[C@H](C(=O)N[C@H](C(=O)N[C@@H](CCC(N)=O)C(=O)N[C@@H](Cc1c[nH]cn1)C(=O)N[C@H](CC(C)C)C(=O)N[C@@H](CO)C(=O)NCCC(=O)N[C@@H](CCCCNC(=S)Nc1ccc2c(c1)C(=O)OC21c2ccc(O)cc2Oc2cc(O)ccc21)C(N)=O)[C@@H](C)O)[C@@H](C)CC)C(C)(C)C [Peptide 14, Dcb-ZIZIT-Gln-His-leu-Ser-βAla-Lys (FITC)] ({Benzoyl(2,3-Cl2)}-[Tle]I[Tle]ITQH[dL]S[βAla]K(FITC)-NH2; C-terminus assumed)
aqueous solubility (qualitative) [2]: good aqueous solubility

Compound: VIVIT: VIVIT (SEQ ID NO: 2) peptide, a CNBM blocking NFAT (Description: CN binding motif)
half-life in human serum [4]: ~1 h
time to complete degradation in human serum [4]: ≤ 6 h
